Source: ChEMBL document CHEMBL1201862, “PubChem BioAssay data set” (2004)
Activity calls are given as the source filed them. Rule as the data show it: actives have a measured IC50 and inactives only a lower limit.

Molecular target: Envelope glycoprotein gp160 (Human immunodeficiency virus 1, UniProt Q6QLK5)
Experiment: inhibitors of HIV fusion peptide binding, primary screen, biochemical, uHTS, fluorescence dequenching (AID 1986)

Sequence of Envelope glycoprotein gp160 (Q6QLK5 whole entry, the tested form may be a part): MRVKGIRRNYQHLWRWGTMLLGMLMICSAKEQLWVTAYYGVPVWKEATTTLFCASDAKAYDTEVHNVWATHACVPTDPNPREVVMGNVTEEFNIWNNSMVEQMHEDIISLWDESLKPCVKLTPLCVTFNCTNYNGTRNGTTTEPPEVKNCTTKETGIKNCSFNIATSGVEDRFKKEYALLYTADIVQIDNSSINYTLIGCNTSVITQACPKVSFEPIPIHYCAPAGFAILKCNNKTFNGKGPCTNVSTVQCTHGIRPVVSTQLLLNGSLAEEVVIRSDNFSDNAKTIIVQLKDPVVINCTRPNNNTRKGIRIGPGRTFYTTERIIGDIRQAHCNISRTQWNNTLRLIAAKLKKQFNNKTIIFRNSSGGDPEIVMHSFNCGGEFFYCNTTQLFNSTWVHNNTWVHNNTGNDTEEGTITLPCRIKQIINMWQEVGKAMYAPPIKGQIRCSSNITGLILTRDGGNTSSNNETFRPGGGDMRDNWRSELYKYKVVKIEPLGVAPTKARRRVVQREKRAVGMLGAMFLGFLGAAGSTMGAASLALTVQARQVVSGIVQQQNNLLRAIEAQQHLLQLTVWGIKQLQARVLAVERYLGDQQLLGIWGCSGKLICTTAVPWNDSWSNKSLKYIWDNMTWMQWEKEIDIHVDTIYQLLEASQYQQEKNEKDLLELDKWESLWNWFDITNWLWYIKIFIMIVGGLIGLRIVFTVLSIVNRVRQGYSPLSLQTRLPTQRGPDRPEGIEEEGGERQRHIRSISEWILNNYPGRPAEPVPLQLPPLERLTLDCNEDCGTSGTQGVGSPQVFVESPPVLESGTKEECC

Row | Structure (SMILES) | IC50
1 | Cc1ccc(NC(S)=NNc2ccc([N+](=O)[O-])cc2S(=O)(=O)Nc2ccccc2C(=O)O)cc1C | 7.4 µM (active)
2 | CC(C)CS(=O)(=O)C1=NN2C(=N)/C(=C\c3ccc(OC(=O)c4ccco4)cc3)C(=O)N=C2S1 | 12.8 µM (active)
3 | N#C/C(=C\c1ccc(O)c([N+](=O)[O-])c1)c1nc2ccccc2s1 | 25.2 µM (active)
4 | O=C(O)/C(CC(=O)c1ccc(Cl)cc1)=N/Nc1ccc([N+](=O)[O-])cc1[N+](=O)[O-] | 20.8 µM (active)
